Results from patent US20250154140A1 (Sunnybrook Research Institute, priority 2022, published 2025).
pIC50: −log10 of the molar value.

Key:
BAX = BAX (Homo sapiens, UniProt Q07812); test: SMAC mCherry assay in permeabilized Bax-/- Bak-/- BMK cells with recombinant Bax and cBid; type: cell-based, mouse; set-up: made in house; host or cells: Escherichia coli BL21-AI; conditions: 20 nM Bax, 0.5 nM cBid, 60-80 minutes; read-out: SMAC mCherry I.D IC50
Method: Bax−/− Bak−/− double-knockout Baby Mouse Kidney (BMK) cells stably expressing a SMAC-(1-56)-mCherry fusion protein were cultured in DMEM complete (DMEM supplemented with 10% FBS and 1× Penicillin-Streptomycin) in 10 cm diameter tissue-culture treated dishes at 37° C. in a humidified incubator with 5% CO2 in air. Cells were washed with PBS, incubated with 1×Trypsin and resuspended in DMEM complete. Detached cells were seeded at 6000 cells per well in 50 uL DMEM complete into a 384 well Perkin-Elmer Phenoplate, incubated at room-temperature for 30 minutes followed by incubation overnight at 37° C. in a humidified incubator with 5% CO2 in air. Recombinant Bax and recombinant cBid were quickly thawed between fingers and 25 mM compound stocks in DMSO were thawed at room temperature. An 8 point titration curve of each compound was created in a 384-well source plate containing Trehalose-Hepes Buffer (THB, 135 mM trehalose, 50 mM KCl, 10 mM HEPES-KOH pH 7.4, 5 mM succinate, 20 uM EDTA, 20 uM EGTA, 0.1% BSA) supplemented with 1/1000 DRAQ5, 0.0025% digitonin, 20 nM Bax and 0.5 nM cBid. The source plate also contained control wells with THB supplemented with 1/1000 DRAQ5, 0.0025% digitonin plus 20 nM Bax (negative control) or 20 nM Bax and 0.5 nM cBid (positive control). Using the Vantage automated liquid handler, DMEM complete media was removed from the cells growing in the 384 well Phenoplate. The cells were washed 2× with 30 uL THB and then 25 uL from the 384 well source plate containing THB proteins and compounds was transferred to the cells growing in the 384 well plate. The cells were incubated for 60-80 minutes at 37 C in a humidified incubator with 5% CO2 in air and then imaged on the Opera Phenix Microscope. Two image channels were acquired: 1) DRAQ5 channel, to visualize nuclei and aid in cell segmentation and 2) SMAC-mCherry channel to visualize mitochondria that retain SMAC-mCherry. Data was processed using PerkinElmer Harmony software where the cells were segmented using the DRAQ5 channel and the mean intensity of SMAC-mCherry for each cell was calculated. The single-cell lobject level data was exported and then analyzed using R code. A per cell SMAC-mCherry intensity cutoff was calculated as 1.33 times the mean per cell SMAC-mCherry intensity of the THB+Bax control. Cells with a SMAC-mCherry intensity below or equal to the cutoff were scored as “released”. The percentage SMAC-mCherry release was calculated as the number of cells scored as “released” divided by the total amount of cells multiplied by 100. Dose-response curves were fit to a 4-parameter log-logistic model to determine the IC50 value for each compound.

FL EGFR = biological target: T1, FL EGFR (Homo sapiens, UniProt P00533); test: EGFR kinase assay (ADP-Glo); type: biochemical
T1 construct: kinase domain of EGFR (amino acids 695-1210); purchased Promega V3831
T1 sequence (P00533 695-1210): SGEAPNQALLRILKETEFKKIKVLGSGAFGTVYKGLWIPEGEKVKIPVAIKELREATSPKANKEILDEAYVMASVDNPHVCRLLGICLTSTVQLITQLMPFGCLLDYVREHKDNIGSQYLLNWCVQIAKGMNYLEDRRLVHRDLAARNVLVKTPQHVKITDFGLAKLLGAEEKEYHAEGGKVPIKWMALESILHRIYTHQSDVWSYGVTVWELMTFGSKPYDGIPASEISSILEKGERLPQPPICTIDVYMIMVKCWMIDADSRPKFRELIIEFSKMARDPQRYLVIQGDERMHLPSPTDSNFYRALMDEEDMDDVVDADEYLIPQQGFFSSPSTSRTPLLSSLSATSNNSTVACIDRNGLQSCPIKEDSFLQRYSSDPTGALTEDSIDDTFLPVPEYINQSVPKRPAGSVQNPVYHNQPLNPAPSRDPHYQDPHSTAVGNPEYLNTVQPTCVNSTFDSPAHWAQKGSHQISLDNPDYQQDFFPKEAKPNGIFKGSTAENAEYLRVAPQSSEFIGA
Method: A peptide containing the kinase domain of EGFR (amino acids 695-1210) was used to assess the inhibitory potency of the inhibitors. The ADP-Glo kinase assay (Promega V9101), and the EGFR kinase enzyme (Promega V3831) were used according to the supplier's instructions. Briefly, […] reactions were assembled in wells of a 384 well plate as follows: 5 μL of the kinase reaction, 5 μL of the ADP depletion reagent, and 10 μL of the luciferase reagent. For the kinase reaction: 1 μL of the inhibitor (dissolved in DMSO) was mixed with 2 μL EGFR peptide ([…]), 1 μL of a poly Glu4Tyr1 peptide (0.2 μg/μL), 1 μL reaction buffer, and 1 μL of ATP (final concentration of 5 μM). The kinase reaction was incubated at room temperature for 1 hour. 5 μL of the ATP depletion/kinase terminating reagent was mixed into each well and incubated at room temperature for 40 minutes. 10 μL of the kinase detection reagent containing luciferase was mixed into each well and incubated at room temperature for 30 minutes for bioluminescent detection of ADP produced from the kinase reaction in step 1. Bioluminescent signal was detected in a Tecan Safire^2 with a black plug covering the excitation filter, and an empty emission filter. The integration time was increased to […] to detect enough luminescence per reading.

Chain of BAX (Q07812 whole entry, the tested form may be a part): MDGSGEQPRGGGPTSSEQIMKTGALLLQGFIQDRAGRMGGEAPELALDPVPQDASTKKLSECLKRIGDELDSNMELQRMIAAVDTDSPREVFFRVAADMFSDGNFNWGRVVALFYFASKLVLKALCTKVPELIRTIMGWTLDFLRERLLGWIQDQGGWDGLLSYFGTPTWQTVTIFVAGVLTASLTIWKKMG

pIC50 (BAX) | Compound | pIC50 (FL EGFR)
4.30 to 4.96 | N#Cc1cccc(Nc2nccc3ccc(NC(=O)CCCN4CCCCC4)cc23)c1 [Compound 1-41, N-(1-((3-cyanophenyl)amino)isoquinolin-7-yl)-4-(piperidin-1-yl)butanamide] | –
4.30 to 4.96 | COc1cc2ccnc(Nc3ccc(F)c(C(C)C)c3)c2cc1NC(=O)CCCN1CCCCC1 [Compound 1-30, N-(1-((4-fluoro-3-isopropylphenyl)amino)-6-methoxyisoquinolin-7-yl)-4-(piperidin-1-yl)butanamide] | –
4.30 to 4.96 | COc1cc2ccnc(Nc3cccc(F)c3)c2cc1NC(=O)CCCN1CCCCC1 [Compound 1-9, N-(1-((3-fluorophenyl)amino)-6-methoxyisoquinolin-7-yl)-4-(piperidin-1-yl)butanamide] | –
4.00 to 4.29 | COc1cc2ccnc(Nc3ccc(C)cc3)c2cc1NC(=O)CCCN1CCCCC1 [Compound 1-14, N-(6-methoxy-1-(p-tolylamino)isoquinolin-7-yl)-4-(piperidin-1-yl)butanamide] | –
5.00 to 7.00 | COc1cc2ccnc(Nc3ccc(F)c(C(F)(F)F)c3)c2cc1NC(=O)CCCN1CCCCC1 [Compound 1-16, N-(1-((4-fluoro-3-(trifluoromethyl)phenyl)amino)-6-methoxyisoquinolin-7-yl)-4-(piperidin-1-yl)butanamide] | –
4.30 to 4.96 | COc1cc2ccnc(Nc3ccc(F)c(Cl)c3)c2cc1NC(=O)CCCN1CCOCC1 [Compound 1-6, N-(1-((3-chloro-4-fluorophenyl)amino)-6-methoxyisoquinolin-7-yl)-4-morpholinobutanamide] | –
5.00 to 7.00 | O=C(CCCN1CCCCC1)Nc1ccc2ccnc(Nc3cc(F)c(Cl)c(Cl)c3)c2c1 [Compound 1-37, N-(1-((3,4-dichloro-5-fluorophenyl)amino)isoquinolin-7-yl)-4-(piperidin-1-yl)butanamide] | –
4.30 to 4.96 | Cc1cc2ccnc(Nc3ccc(F)c(Cl)c3)c2cc1NC(=O)CCCN1CCCCC1 [Compound 1-17, N-(1-((3-chloro-4-fluorophenyl)amino)-6-methylisoquinolin-7-yl)-4-(piperidin-1-yl)butanamide] | –

Compound | pIC50 (BAX) | pIC50 (FL EGFR)
COc1cc2ccnc(Nc3ccc(F)c(Cl)c3)c2cc1NC(=O)CCCN1CCCCC1 [Compound 1-1, N-(1-((3-chloro-4-fluorophenyl)amino)-6-methoxyisoquinolin-7-yl)-4-(piperidin-1-yl)butanamide] | 5.00 to 7.00 | < 5.00
